Values of other authors as cited in PMC10967909, “Targeted Delivery of Abaloparatide to Spinal Fusion Site Accelerates Fusion Process in Rats” (Biomedicines, 2024).
Values belong to the molecule of their own block, whether it stands above or below them.

What was measured:
PTH1R (UMR-106 cells) = target: T1, PTH1R (UMR-106 cells) (Rattus norvegicus, UniProt P25961); conditions: UMR 106 cells treated with drug for 1 h; Figure 2A legend, adapted; ref Low et al., 2022 [20]; read-out: EC50 (cAMP Glo assay)
T1 construct: evaluated in UMR-106 cells (ATCC, Manassas, VA, USA) which express PTH1R; host or cells: UMR-106 cells
T1 sequence (P25961 27-591): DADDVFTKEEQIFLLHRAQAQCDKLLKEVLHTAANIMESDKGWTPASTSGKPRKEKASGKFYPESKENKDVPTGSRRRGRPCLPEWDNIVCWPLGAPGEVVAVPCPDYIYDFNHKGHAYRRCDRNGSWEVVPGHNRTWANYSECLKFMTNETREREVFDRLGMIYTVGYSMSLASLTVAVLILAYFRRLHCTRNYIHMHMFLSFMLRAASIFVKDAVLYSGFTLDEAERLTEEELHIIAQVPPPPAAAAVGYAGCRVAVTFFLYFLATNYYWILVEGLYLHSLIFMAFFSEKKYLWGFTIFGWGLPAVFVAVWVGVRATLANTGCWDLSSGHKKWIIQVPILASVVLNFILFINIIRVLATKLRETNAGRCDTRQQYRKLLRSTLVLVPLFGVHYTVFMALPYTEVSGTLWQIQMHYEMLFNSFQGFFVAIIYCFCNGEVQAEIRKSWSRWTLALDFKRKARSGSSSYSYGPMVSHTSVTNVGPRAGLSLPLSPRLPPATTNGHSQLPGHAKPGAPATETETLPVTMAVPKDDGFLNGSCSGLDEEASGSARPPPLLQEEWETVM

[1] = Source text: A second question that logically arose is whether abaloparatide constituted the ideal payload for accelerating the fusion process. Although the PTH1R agonist, abaloparatide, has been well established as a bone anabolic agent, it is only clinically approved for treating osteoporosis. Most of abaloparatide’s applications have been limited to promoting systemic changes throughout the skeleton to reduce fracture risk.

EC50 (PTH1R (UMR-106 cells)): 0.66 nM
Molecule: abaloparatide
trabecular bone growth, clinical ([1]; clinically): promote trabecular bone growth
fracture repair efficacy of nontargeted abaloparatide ([1]; past efforts, ref not given): unsuccessful due to the lack of efficacy at systemically tolerable doses
trabecular bone growth, preclinical ([1]; preclinically): promote trabecular bone growth

EC50 (PTH1R (UMR-106 cells)): 0.48 nM
B1: Ab46-D-Glu20: variant of abaloparatide linked to a linear 20 mer of D-glutamic acid that naturally accumulates on exposed hydroxyapatite (protein)
chain: AVSEHQLLHDKGKSIQDLRRRELLEKLLAKLHTAEIRATSEVSPNSEEEEEEEEEEEEEEEEEEEE
modifications: The C-terminal 20 Glu are all D-residues (linear D-Glu20, described in the text as a 20 mer of D-glutamic acid); Ab46 is tak
